According to paper PMC4368200, “Triclabendazole Sulfoxide Causes Stage-Dependent Embryolethality in Zebrafish and Mouse In Vitro” (PLoS ONE, 2015):
Read-outs that look alike come from different tables or passages of the source. Marks after values point to notes of the source that are not given here.

What was measured:
[1] = set-up: method as in PMID 20128898; details: sheep, TCBZ 10 mg/kg; calculated from ref 41; read-out: TCBZSO Cmax; cited from earlier work
[2] = test system: rat embryos explanted at GD 9.5; experiment: Postimplantation whole embryo culture (postWEC); set-up: species or system Sprague Dawley rats; key to Yolk sac circulation (median): 1 = few/abnormal vessels, 2 = delayed, 3 = complete vascularization; key to Morphological score: sum of structure scores; higher = more advanced differentiation; details: for Crown-rump length / Dysmorphogenic embryos / Morphological score / Somites number / Yolk sac circulation (median): 48 h; for postWEC LOAEC / postWEC NOAEC: GD 9.5-11.5, 48 h; for Teratogenic/dysmorphogenic potency, times lower than ABZ: postimplantation rodent embryos
Protocol: Nulliparous female rats, which were checked to be in the oestrus phase of the oestrous cycle, were housed with adult males (1:1) for 4 h, considering 2 h of light and 2 h of darkness. Mating was confirmed by the presence of sperm in vaginal smear, and the following 24 h were considered as gestational day 0 (GD 0).
Rat embryos were explanted and evaluated as described before with some variations. Briefly, embryos were explanted at GD 9.5 under sterile conditions. Two embryos were incorporated in flasks filled with 3.5 mL of culture medium which contained 20% of rat serum and 80% of serum mixture (Biochrom AG; Berlin, Germany). TCBZ, TCBZSO, ABZ and ABZSO were dissolved in dimethyl sulfoxide (DMSO; Sigma Aldrich Spain) and added to the culture medium to a final DMSO concentration of 0.1%. Culture flasks were oxygenated at the beginning of the culture with a gas mixture containing 12% O2 and after 38 h with a gas mixture containing 50% O2. Embryos were cultured at a temperature of 38°C, under rotation at a speed of 25 rpm (Noria R, Ovan Spain) for 48 h. After this period, embryos presenting yolk sac circulation and heartbeat were considered alive and were selected for further evaluation. The yolk sac circulation was evaluated according to the level of formation of blood vessels, giving a score of 1 in the cases in which few vessels were observed or the vascularization was abnormal, a score of 2 when a delay in vascularization was observed and 3 for complete vascularization, as previously described in [35]. Growth evaluation was assessed by crown-rump length and differentiation was evaluated by counting the number of somites and the morphological score. This score is the sum of the scores given to several embryonic structures depending on their differentiation stage, corresponding higher values with higher stages of differentiation. Furthermore, the percentage of dysmorphogenesis was calculated according to [36].
For the postWEC experiments, the selected concentrations were 140 μM, 278 μM and 556 μM for TCBZ and 267 μM, 666 μM and 932 μM for TCBZSO. The tested concentrations for ABZ analysis were 0.4 μM, 1.1 μM and 1.9 μM and for ABZSO were 3.4 μM, 9 μM, 12 μM, 14 μM and 16 μM.

[3] = set-up: method as in PMID 7905812; details: rabbits, single 10 mg/kg TCBZ dose; transformed to μM from ref 40; read-out: TCBZSO maximum plasma concentration (Cmax); cited from earlier work
[4] = set-up: method as in PMID 21337234; details: cows, 12 mg/kg dose; calculated from ref 39; read-out: TCBZSO Cmax; cited from earlier work
[5] = set-up: method as in PMID 3824395; details: 200mg/kg dose; cited from earlier work
[6] = Plasma Cmax in humans after therapeutical TCBZ dose (literature); type: in vivo; details: 10 mg/kg

## C[S+]([O-])c1nc2cc(Oc3cccc(Cl)c3Cl)c(Cl)cc2[nH]1 (centres unmarked) [TCBZSO, Triclabendazole sulfoxide]
[1]
  Cmax: 37.3 µM
[2]; 267 μM
  Crown-rump length: 3.4 ± 0.4 mm
  Dysmorphogenic embryos: 0%
  Morphological score: 37.9 ± 2.8
  Somites number: 26.6 ± 1.6
  Yolk sac circulation (median): 3.0
[2]; 666 µM
  Frequency of dysmorphogenesis: Branchial bars: 11.1%
  Frequency of dysmorphogenesis: Head: 33.3%
  Frequency of dysmorphogenesis: Optic vesicles: 33.3%
  Frequency of dysmorphogenesis: Yolk sac: 33.3%
[2]; 666 μM
  Crown-rump length: 3.1 ± 0.7 mm
  Dysmorphogenic embryos: 55.6 ^* %
  Morphological score: 30.8 ± 7.1
  Somites number: 25.1 ± 2.1
  Yolk sac circulation (median): 3.0 ^*
[2]; 932 µM
  Frequency of dysmorphogenesis: Branchial bars: 100%
  Frequency of dysmorphogenesis: Flexion: 87.5%
  Frequency of dysmorphogenesis: Head: 75%
  Frequency of dysmorphogenesis: Limbs: 12.5%
  Frequency of dysmorphogenesis: Optic vesicles: 62.5%
  Frequency of dysmorphogenesis: Otic vesicles: 25%
  Frequency of dysmorphogenesis: Yolk sac: 100%
[2]; 932 μM
  Crown-rump length: 2.3 ± 0.5 mm
  Dysmorphogenic embryos: 100 ^* %
  Morphological score: 20.3 ± 2.7
  Yolk sac circulation (median): 1.0 ^*
[2]
  postWEC LOAEC: 666 µM
  postWEC NOAEC: 267 µM
[2]; postWEC
  Teratogenic potency, times less potent than parent compound TCBZ: 2.5 times
[3]
  Cmax: 33 µM
[4]
  Cmax: 71.3 µM

## CSc1nc2cc(Cl)c(Oc3cccc(Cl)c3Cl)cc2[nH]1 [TCBZ, 5-chloro-6-(2,3-dichlorophenoxy)-2-(methylthio)benzimidazole]
[5]
  Teratogenicity in vivo: not teratogenic at a 200mg/kg dose [23]
[6]
  Plasma concentration, times lower than triclabendazole sulfoxide: approximately 30 times
[2]; 140 μM
  Crown-rump length: 3.5 ± 0.2 mm
  Dysmorphogenic embryos: 0%
  Morphological score: 39.0 ± 1.5
  Somites number: 26.9 ± 1.1
  Yolk sac circulation (median): 3.0
[2]; 278 µM
  Frequency of dysmorphogenesis: Branchial bars: 25%
  Frequency of dysmorphogenesis: Flexion: 12.5%
  Frequency of dysmorphogenesis: Head: 12.5%
  Frequency of dysmorphogenesis: Otic vesicles: 12.5%
  Frequency of dysmorphogenesis: Yolk sac: 62.5%
[2]; 278 μM
  Crown-rump length: 3.2 ± 0.5 mm
  Dysmorphogenic embryos: 62.5 ^* %
  Morphological score: 35.1 ± 5.9
  Somites number: 25.7 ± 2.0
  Yolk sac circulation (median): 1.0 ^*
[2]; 556 µM
  Frequency of dysmorphogenesis: Branchial bars: 100%
  Frequency of dysmorphogenesis: Flexion: 50%
  Frequency of dysmorphogenesis: Head: 75%
  Frequency of dysmorphogenesis: Heart: 12.5%
  Frequency of dysmorphogenesis: Optic vesicles: 37.5%
  Frequency of dysmorphogenesis: Yolk sac: 100%
[2]; 556 μM
  Crown-rump length: 2.6 ± 0.6 mm
  Dysmorphogenic embryos: 100%
  Morphological score: 21.0 ± 3.0
  Yolk sac circulation (median): 1.0 ^*
[2]
  postWEC LOAEC: 278 µM
  postWEC NOAEC: 140 µM
  Teratogenic/dysmorphogenic potency, times lower than ABZ: approximately 250 times
[2]; listed as Triclabendazole
  Teratogenic/dysmorphogenic potency, times lower than ABZ: 250 times
